Some test systems named below: KM12 colon; MOLT-4 leukemia; OVCAR-4 ovarian; RPMI-8226 leukemia; SK-MEL-5 melanoma; SNB-75 CNS; HT29 colon; SF-295 CNS; NCI/ADR-RES ovarian.
Assay in all cases: NCI tumour cell line growth inhibition, 48 h

Each structure is given as a SMILES string.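 Values below derive from 48-hour exposures of cells grown in 96-well plates, with endpoints linearly interpolated between the two concentrations bracketing the appropriate inhibition level. Abbreviation: GI50, concentration required for 50% inhibition of growth. TGI: total growth inhibition.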 Where a SMILES comes first, the peptide text is derived from it.

On to `C=CC1(NS(=O)(=O)c2ccc(C)cc2)CCC(C(C)(C)C)CC1` (stereo unspecified), for which the TGI was > 100 µM with KM12 colon; > 100 µM with MOLT-4 leukemia; > 100 µM in the assay on OVCAR-4 ovarian; > 100 µM in the assay with RPMI-8226 leukemia; > 100 µM with SK-MEL-5 melanoma; 54.1 µM with SNB-75 CNS.
Turning to `CC1=C(Cl)C=CP(=O)(OC(C)C)C1` (stereo unspecified), the TGI in the assay with HT29 colon, in the assay with KM12 colon, with MOLT-4 leukemia, in the assay on OVCAR-4 ovarian, in the assay on RPMI-8226 leukemia and in the assay with SF-295 CNS was > 100 µM each time. Moreover, the TGI with SK-MEL-5 melanoma is > 100 µM; with SNB-75 CNS, 47.3 µM.
With `COC(=O)C1C=NNC1C(=O)OC` (stereo unspecified), the TGI in the assay with HT29 colon, in the assay on KM12 colon, in the assay with MOLT-4 leukemia, in the assay on OVCAR-4 ovarian, with RPMI-8226 leukemia and in the assay on SF-295 CNS was > 100 µM each time. Besides, the TGI in the assay with SK-MEL-5 melanoma and in the assay on SNB-75 CNS was > 100 µM each time.
With `COc1ccc(-c2cc(-c3cc(Cl)cc(Br)c3O)[nH]c(=O)n2)cc1`, the TGI amounted to 39.4 µM in the assay on HT29 colon; 41.3 µM with KM12 colon; 35.3 µM with MOLT-4 leukemia; 26.5 µM in the assay on OVCAR-4 ovarian; 49 µM in the assay with RPMI-8226 leukemia; 32.7 µM in the assay with SF-295 CNS. The TGI in the assay on SNB-75 CNS is 38.3 µM.
As for `Cc1cccc(N2C(=O)C(=O)C(c3nc4ccccc4s3)/C(=N/NC(=S)NN)C2=O)c1C` (stereo unspecified), the TGI with KM12 colon, with MOLT-4 leukemia, with OVCAR-4 ovarian, in the assay on RPMI-8226 leukemia, in the assay on SF-295 CNS and with SK-MEL-5 melanoma was > 100 µM each time. For the same compound, the TGI with SNB-75 CNS was > 100 µM.
On to `C#CC1(O)c2ccccc2C(=O)c2ccccc21`, for which the TGI with HT29 colon, with KM12 colon, in the assay with MOLT-4 leukemia, in the assay on OVCAR-4 ovarian and in the assay with SF-295 CNS was > 100 µM in each case.
With `Clc1ccc2nc(-c3ccccc3)nc(Cl)c2c1`, the TGI in the assay with HT29 colon, with KM12 colon, in the assay with MOLT-4 leukemia, in the assay with RPMI-8226 leukemia, with SF-295 CNS and in the assay on SK-MEL-5 melanoma was > 100 µM in each case. Besides, the TGI in the assay on SNB-75 CNS came to 59.5 µM.
Regarding `CCCCN[C@H]1C2C3CC4C5CC(C42)C1(C)C53` (stereo partly specified), the TGI with HT29 colon, with KM12 colon, with MOLT-4 leukemia, in the assay on OVCAR-4 ovarian, in the assay with RPMI-8226 leukemia and in the assay on SF-295 CNS was > 100 µM in each case. Further, the TGI in the assay with SK-MEL-5 melanoma and in the assay with SNB-75 CNS was > 100 µM each time.
On to `Cc1ccc(NC(=S)SCCC(=O)O)cc1`, for which the TGI in the assay on HT29 colon, in the assay on KM12 colon, in the assay with MOLT-4 leukemia, with OVCAR-4 ovarian, in the assay with RPMI-8226 leukemia and in the assay with SF-295 CNS was > 100 µM in each case.
Regarding `O=S1(=O)CCCS(=O)(=O)C(c2ccccc2)=C1c1ccccc1`, the TGI with HT29 colon is > 100 µM; in the assay on KM12 colon it was 79 µM; with MOLT-4 leukemia, > 100 µM; in the assay with OVCAR-4 ovarian it was > 100 µM; with RPMI-8226 leukemia, > 100 µM; in the assay on SK-MEL-5 melanoma, > 100 µM. The TGI in the assay with SNB-75 CNS is > 100 µM.
Turning to `CCC(C)C1NC(=O)C2CCCN2C(=O)CNC(=O)C(C)NC(=O)C(Cc2ccccc2)NC(=O)C(C(C)C)NC1=O` (stereo unspecified) (cyclo(GPIVFA); configuration not given here), the TGI with HT29 colon, in the assay on KM12 colon, with MOLT-4 leukemia, in the assay with OVCAR-4 ovarian, in the assay on RPMI-8226 leukemia and in the assay with SF-295 CNS was > 100 µM throughout. The TGI with SK-MEL-5 melanoma and in the assay on SNB-75 CNS was > 100 µM throughout.
As to `CCOC(=O)[C@H]1Nc2ccc([N+](=O)[O-])cc2C2c3ccccc3CC21` (stereo partly specified), the TGI was 35.4 µM in the assay with HT29 colon; > 100 µM with KM12 colon; 69.1 µM in the assay with MOLT-4 leukemia; 49.8 µM in the assay on OVCAR-4 ovarian; > 100 µM with RPMI-8226 leukemia; 31.2 µM in the assay with SF-295 CNS. Further, the TGI with SK-MEL-5 melanoma was 30.7 µM; in the assay with SNB-75 CNS, > 100 µM.
Regarding `OCCNCCCOc1ccc2ncnc(Nc3ccc(Oc4cccc(C(F)(F)F)c4)c(Cl)c3)c2c1`, the GI50 was 1770 nM in the assay on KM12 colon; 2650 nM with NCI/ADR-RES ovarian; 1510 nM in the assay on RPMI-8226 leukemia; 1790 nM in the assay on SF-295 CNS; 1480 nM with SNB-75 CNS. The TGI was 3.26 µM with KM12 colon; 9.3 µM in the assay with NCI/ADR-RES ovarian; 4.1 µM in the assay on RPMI-8226 leukemia; 3.24 µM in the assay on SF-295 CNS; 2.86 µM in the assay on SNB-75 CNS.
As for `O=[N+]([O-])c1cc(Cl)ccc1OCc1ccccc1`, the TGI in the assay with HT29 colon is 84.1 µM; with KM12 colon, > 100 µM; in the assay on MOLT-4 leukemia, > 100 µM; in the assay with OVCAR-4 ovarian, > 100 µM; with RPMI-8226 leukemia, > 100 µM; with SF-295 CNS it was > 100 µM. In addition, the TGI in the assay with SK-MEL-5 melanoma turned out to be 70.5 µM; with SNB-75 CNS it was 90.8 µM.
Consider `Cc1ccc(-c2cc(=O)c3cc(C)c(C)c(C(=O)O)c3o2)cc1N`, for which the TGI with HT29 colon, in the assay on KM12 colon, with MOLT-4 leukemia, in the assay with OVCAR-4 ovarian, in the assay with RPMI-8226 leukemia and in the assay with SF-295 CNS was > 100 µM throughout. The TGI in the assay with SK-MEL-5 melanoma and in the assay with SNB-75 CNS was > 100 µM in each case.
As to `COc1ccc(/C=c2/sc3n(c2=O)NC2(CCC(C)CC2)NN=3)cc1` (stereo unspecified), the TGI with HT29 colon, with KM12 colon, in the assay with MOLT-4 leukemia, with OVCAR-4 ovarian, with SF-295 CNS and with SK-MEL-5 melanoma was > 100 µM throughout. Also, the TGI in the assay on SNB-75 CNS is > 100 µM.
For `COc1ccc(/C(Cl)=C(\c2ccc(OCCN(C)C)cc2)c2ccc(OC(=O)C(C)(C)C)cc2)cc1`, the TGI with HT29 colon is 11.5 µM; in the assay with KM12 colon, 26.4 µM; in the assay with MOLT-4 leukemia, 14.7 µM; in the assay with OVCAR-4 ovarian, 26.9 µM; with RPMI-8226 leukemia, 30.9 µM; in the assay on SF-295 CNS it was 28 µM. The TGI in the assay with SK-MEL-5 melanoma amounted to 27 µM; in the assay with SNB-75 CNS, 21.9 µM.

The record behind these values is PubChem BioAssay (NCI).
